Activity calls are given as the source filed them.
Experiments:
Streptokinase A = biological target: T1, Streptokinase A (Streptococcus pyogenes serotype M1, UniProt P10520); test: S. pyogenes streptokinase expression inhibitors, potency, dose response, plasminogen activation absorbance, OD405 (AID 1914); type: functional, Streptococcus pyogenes M1 GAS;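 further: secreted streptokinase activity via plasminogen activation per viability signal from cell pellet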
T1 sequence (P10520 whole entry): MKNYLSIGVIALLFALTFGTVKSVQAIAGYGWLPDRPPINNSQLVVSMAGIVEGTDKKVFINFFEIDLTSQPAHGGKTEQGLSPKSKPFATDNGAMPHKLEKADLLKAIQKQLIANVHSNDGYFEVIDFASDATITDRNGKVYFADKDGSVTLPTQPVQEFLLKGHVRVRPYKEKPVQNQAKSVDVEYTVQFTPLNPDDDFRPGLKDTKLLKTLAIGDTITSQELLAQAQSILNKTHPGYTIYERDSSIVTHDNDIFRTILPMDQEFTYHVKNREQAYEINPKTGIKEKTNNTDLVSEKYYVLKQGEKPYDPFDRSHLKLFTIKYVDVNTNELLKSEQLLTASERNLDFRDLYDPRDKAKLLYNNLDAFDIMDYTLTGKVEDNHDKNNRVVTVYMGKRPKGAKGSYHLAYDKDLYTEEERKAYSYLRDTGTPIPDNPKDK

[1] = system: Streptococcus sp. 'group A'; test: growth inhibition of control SK(-) GAS strain, dose response, counter-screen for streptokinase expression inhibitor project, luminescence, kanamycin, BacTiterGlo, confirmation (AID 1900); type: functional, organism-based
Streptococcus [2] = test: Luminescence Microorganism-Based Dose Response Follow up to Identify Compounds Cytotoxic to Streptococcus. [Related pubchem assays: 1677 (Project Summary), 1915, 1914, 1902 (Retest at Dose), 1900 (Counter Screen), 1662 (Primary HTS)]; type: functional, organism-based
Streptococcus [3] = test: Group A Streptococcus viability loss, dose response, counter-screen for streptokinase expression inhibitor project, luminescence, BacTiterGlo (AID 1915); type: functional, organism-based;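 further: potency for reduction of bacterial viability or growth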
[4] = biological target: G-protein coupled receptor 55 (Homo sapiens, UniProt Q9Y2T6); test: GPR55 agonists via beta-arrestin recruitment, primary screen, imaging, U2OS cells, beta-arrestin-GFP redistribution (AID 1961); type: functional
Sequence of G-protein coupled receptor 55 (Q9Y2T6 whole entry): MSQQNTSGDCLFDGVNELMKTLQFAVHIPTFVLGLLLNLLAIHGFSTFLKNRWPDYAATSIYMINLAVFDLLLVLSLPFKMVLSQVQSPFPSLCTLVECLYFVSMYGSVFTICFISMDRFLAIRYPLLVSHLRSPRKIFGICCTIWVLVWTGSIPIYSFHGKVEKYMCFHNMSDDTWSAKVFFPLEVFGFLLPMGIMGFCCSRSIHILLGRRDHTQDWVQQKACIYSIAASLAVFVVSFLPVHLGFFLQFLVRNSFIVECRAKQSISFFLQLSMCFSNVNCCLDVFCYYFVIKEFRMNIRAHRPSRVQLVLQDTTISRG

Cytochrome P450 2C9 = Cytochrome P450 2C9 (Homo sapiens, UniProt P11712); details: Potency
Sequence of Cytochrome P450 2C9 (P11712 whole entry): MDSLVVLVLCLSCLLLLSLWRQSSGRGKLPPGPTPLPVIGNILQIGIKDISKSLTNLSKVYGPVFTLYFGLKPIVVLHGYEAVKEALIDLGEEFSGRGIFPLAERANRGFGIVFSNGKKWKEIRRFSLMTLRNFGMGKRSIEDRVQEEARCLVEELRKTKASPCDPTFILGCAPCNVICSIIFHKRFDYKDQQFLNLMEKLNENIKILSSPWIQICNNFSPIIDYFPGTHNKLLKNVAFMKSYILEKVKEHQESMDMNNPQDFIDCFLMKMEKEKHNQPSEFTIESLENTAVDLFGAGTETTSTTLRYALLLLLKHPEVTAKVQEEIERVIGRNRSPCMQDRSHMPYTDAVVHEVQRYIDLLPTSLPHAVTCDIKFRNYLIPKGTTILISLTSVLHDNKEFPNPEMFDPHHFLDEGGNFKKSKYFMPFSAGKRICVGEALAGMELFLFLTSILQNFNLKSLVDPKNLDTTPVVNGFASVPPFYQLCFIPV

[5] = biological target: T2, Alkaline phosphatase, tissue-nonspecific isozyme (Homo sapiens, UniProt P05186); test: TNAP enzyme activators, dose response, selectivity assay for human IAP activator project, biochemical, TNAP isozyme, human IAP uHTS hits (AID 488886); type: functional;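 further: potency of compounds raising TNAP activity as a selectivity check on IAP activators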
T2 sequence (P05186 whole entry): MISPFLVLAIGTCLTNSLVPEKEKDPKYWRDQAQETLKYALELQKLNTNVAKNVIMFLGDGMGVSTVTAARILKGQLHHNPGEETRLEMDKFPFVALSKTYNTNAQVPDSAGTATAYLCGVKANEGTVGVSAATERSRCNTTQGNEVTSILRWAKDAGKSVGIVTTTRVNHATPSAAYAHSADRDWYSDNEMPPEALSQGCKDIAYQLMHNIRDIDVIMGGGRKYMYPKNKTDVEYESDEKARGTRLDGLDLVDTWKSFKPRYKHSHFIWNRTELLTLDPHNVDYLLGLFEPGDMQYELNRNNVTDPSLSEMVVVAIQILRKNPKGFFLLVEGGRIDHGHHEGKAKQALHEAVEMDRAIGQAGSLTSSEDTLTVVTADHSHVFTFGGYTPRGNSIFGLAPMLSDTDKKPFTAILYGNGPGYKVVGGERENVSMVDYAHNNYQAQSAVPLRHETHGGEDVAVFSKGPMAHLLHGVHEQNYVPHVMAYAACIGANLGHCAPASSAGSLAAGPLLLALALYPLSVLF

[6] = cytotoxicity in HPDE-C7 cells, cell-based, fluorescence, HTS (AID 430); type: functional; details: Homo sapiens
[7] = cytotoxicity in KRAS-transformed pancreatic duct cells, primary screen, cell-based, fluorescence, HTS (AID 431); type: functional; details: Homo sapiens;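 further: cell line used: HPDE-C7K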
[8] = biological target: T3, Intestinal-type alkaline phosphatase (Homo sapiens, UniProt P09923); test: human IAP activators, dose response, biochemical, luminescent, uHTS hits, set 2 (AID 488817); type: functional;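 further: potency of activators that raise enzyme activity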
T3 sequence (P09923 whole entry): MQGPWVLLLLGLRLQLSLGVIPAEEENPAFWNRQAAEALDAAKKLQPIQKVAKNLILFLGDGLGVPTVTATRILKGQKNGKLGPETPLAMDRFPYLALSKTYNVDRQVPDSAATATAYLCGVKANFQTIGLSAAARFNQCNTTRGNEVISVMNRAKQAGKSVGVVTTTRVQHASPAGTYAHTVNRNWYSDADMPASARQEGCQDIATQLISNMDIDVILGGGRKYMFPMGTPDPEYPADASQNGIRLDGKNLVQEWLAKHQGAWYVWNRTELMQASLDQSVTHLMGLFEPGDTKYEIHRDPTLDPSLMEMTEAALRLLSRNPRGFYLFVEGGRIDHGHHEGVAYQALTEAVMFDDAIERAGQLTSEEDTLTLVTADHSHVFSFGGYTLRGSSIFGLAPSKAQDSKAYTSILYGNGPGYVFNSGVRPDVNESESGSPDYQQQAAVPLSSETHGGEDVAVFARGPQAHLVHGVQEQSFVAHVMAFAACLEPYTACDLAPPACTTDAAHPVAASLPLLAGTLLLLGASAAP

[9] = biological target: Intestinal-type alkaline phosphatase (Mus musculus, UniProt P24822); test: PubChem AID 488874; type: functional
Sequence of Intestinal-type alkaline phosphatase (Mus musculus, UniProt P24822) (P24822 whole entry): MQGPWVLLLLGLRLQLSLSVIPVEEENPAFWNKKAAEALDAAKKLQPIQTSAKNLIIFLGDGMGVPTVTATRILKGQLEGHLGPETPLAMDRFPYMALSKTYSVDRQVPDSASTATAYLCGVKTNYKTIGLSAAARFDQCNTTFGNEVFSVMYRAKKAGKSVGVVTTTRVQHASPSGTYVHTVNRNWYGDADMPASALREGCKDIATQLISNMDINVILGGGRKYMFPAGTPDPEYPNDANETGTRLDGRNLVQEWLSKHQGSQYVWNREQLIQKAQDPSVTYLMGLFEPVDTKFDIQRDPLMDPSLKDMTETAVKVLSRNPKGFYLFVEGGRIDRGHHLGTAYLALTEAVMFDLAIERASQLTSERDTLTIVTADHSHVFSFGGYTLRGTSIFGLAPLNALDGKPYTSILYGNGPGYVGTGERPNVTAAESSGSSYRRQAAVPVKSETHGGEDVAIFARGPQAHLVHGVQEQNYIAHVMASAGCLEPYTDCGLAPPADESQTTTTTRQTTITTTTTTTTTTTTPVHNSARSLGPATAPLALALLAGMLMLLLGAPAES

[10] = biological target: T3, Intestinal-type alkaline phosphatase; test: human intestinal alkaline phosphatase activators, dose response, biochemical, luminescence, uHTS hits (AID 463120); type: functional
Bcl-2-like protein 10 = Bcl-2-like protein 10 (Homo sapiens, UniProt Q9HD36); test: displacers of TR3 peptide from Bcl-B, primary screen, selectivity assay for Bfl-1 inhibitor project, biochemical, fluorescence polarization, FITC-TR3 peptide (AID 748);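 further: fluorescence polarization from a fluorescein-labelled TR3 peptide binding purified Bcl-B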
Sequence of Bcl-2-like protein 10 (Q9HD36 whole entry): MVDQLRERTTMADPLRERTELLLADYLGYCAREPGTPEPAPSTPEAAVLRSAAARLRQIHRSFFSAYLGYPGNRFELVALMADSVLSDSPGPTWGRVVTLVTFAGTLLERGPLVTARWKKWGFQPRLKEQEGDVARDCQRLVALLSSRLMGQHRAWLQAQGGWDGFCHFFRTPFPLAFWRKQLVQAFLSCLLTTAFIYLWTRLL

[11] = biological target: Polyadenylate-binding protein 1 (Homo sapiens, UniProt P11940); test: PABP inhibition in translation initiation, SAR follow-up (AID 435018); type: functional
Sequence of Polyadenylate-binding protein 1 (P11940 whole entry): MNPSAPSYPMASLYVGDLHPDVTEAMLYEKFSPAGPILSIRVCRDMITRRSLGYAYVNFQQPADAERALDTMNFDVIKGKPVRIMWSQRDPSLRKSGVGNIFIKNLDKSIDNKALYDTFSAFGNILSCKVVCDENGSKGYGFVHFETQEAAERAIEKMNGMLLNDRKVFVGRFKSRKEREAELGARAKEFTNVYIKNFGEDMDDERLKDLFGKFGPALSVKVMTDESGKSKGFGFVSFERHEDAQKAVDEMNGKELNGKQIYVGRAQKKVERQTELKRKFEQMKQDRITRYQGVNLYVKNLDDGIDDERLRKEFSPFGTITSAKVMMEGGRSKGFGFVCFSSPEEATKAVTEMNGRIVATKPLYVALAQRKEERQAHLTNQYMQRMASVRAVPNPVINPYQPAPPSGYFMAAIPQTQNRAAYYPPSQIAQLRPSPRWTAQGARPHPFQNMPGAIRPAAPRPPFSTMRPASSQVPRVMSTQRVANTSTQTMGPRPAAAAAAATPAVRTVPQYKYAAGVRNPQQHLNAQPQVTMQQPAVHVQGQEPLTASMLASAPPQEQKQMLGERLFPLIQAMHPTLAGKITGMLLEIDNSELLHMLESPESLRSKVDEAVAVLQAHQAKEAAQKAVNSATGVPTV

[12] = biological target: Eukaryotic translation initiation factor 4H (Homo sapiens, UniProt Q15056); test: eIF4H inhibition in translation initiation, SAR follow-up (AID 435011); type: functional
[13] = biological target: Neuropeptides B/W receptor type 1 (Homo sapiens, UniProt P48145); test: Fluorescence-based dose response cell-based high throughput screening assay to identify antagonists of the G-protein coupled receptor 7 (GPR7). [Related pubchem assays: 1952 (Screening assay (GPR7 antagonists).), 1880 (Summary AID.)]; type: functional
Sequence of Neuropeptides B/W receptor type 1 (P48145 whole entry): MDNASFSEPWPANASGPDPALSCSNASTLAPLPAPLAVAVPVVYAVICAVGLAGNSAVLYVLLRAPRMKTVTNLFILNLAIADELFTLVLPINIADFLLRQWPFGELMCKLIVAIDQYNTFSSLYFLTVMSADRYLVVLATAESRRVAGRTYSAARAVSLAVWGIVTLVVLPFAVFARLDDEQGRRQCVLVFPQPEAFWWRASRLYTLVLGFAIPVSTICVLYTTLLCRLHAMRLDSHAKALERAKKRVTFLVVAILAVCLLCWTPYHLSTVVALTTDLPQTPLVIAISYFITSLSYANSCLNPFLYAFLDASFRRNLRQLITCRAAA

[14] = biological target: Melanin-concentrating hormone receptor 1 (Homo sapiens, UniProt Q99705); test: Fluorescence-based counterscreen for antagonists of the G-protein coupled receptor 7 (GPR7): cell-based high throughput dose response assay to identify antagonists of the melanin-concentrating hormone receptor 1 (MCHR1).; type: functional
Sequence of Melanin-concentrating hormone receptor 1 (Q99705 whole entry): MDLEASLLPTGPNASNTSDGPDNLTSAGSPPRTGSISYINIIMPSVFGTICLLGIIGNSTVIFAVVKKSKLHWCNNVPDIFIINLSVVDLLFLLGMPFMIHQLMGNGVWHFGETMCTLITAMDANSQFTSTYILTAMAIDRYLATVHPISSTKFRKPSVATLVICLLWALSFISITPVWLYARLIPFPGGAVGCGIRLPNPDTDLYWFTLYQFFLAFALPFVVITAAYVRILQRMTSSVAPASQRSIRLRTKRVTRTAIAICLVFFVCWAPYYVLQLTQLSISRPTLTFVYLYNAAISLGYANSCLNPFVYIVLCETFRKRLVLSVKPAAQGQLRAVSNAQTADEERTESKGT

Staphylococcus aureus = test: Inhibitors of Bacterial Quorum Sensing Structure Activity Relationship (SAR) Analysis: Dose Response Assay. [Related pubchem assays: 700, 527 ]; type: functional, organism-based

SMILES: FC(F)(F)c1cccc(-c2cc3ccccc3nc2N2CCCC2)c1
- EC50 (Streptokinase A): 9.12 µM (active)
- EC50 [1]: 6.96 µM (active)
- EC50 (Streptococcus [2]): > 500 µM (not active)
- EC50 (Streptococcus [3]): > 150 µM (not active)

SMILES: NC(=S)N/N=C/c1c[nH]c2ccc(OCc3ccccc3)cc12
- EC50 [4]: 0.874 µM (active)

SMILES: CC(C)C[C@@H](CC(=O)N[C@@H](CCCN)CC(=O)N[C@@H]1CCCC[C@H]1C(=O)N[C@H](CC(=O)N[C@@H](CCC(=O)O)CC(=O)O)CC(C)C)NC(=O)[C@@H]1CNCC[C@H]1N
- AC50 (Cytochrome P450 2C9): 39.8 µM (inconclusive)

SMILES: O=c1cc(-c2ccccc2)[nH]n1-c1nc2ccccc2[nH]1
- EC50 [5]: 17.1 µM (active)
- EC50 [6]: 2.73 µM (active)
- EC50 [7]: 2.21 µM (active)
- EC50 [8]: 14.8 µM (active)
- IC50 [9]: 36.8 µM (active)
- EC50 [10]: 11.5 µM (active)

SMILES: c1cc2c3c(cccc3c1)NC1(CCCCC1)N2
- IC50 (Bcl-2-like protein 10): 60.5 µM (inactive)

SMILES: COCc1ccc(C(=O)OCC(=O)Nc2ccc([N+](=O)[O-])cc2OC)cc1
- IC50 [11]: > 100 µM (inactive)
- IC50 [12]: > 100 µM (inactive)

SMILES: O=C(NCc1cccnc1)c1cc(-c2ccc(Cl)cc2)oc1C(F)(F)F
- IC50 [13]: > 14.6 µM (not active)
- IC50 [14]: 11.9 µM (not active)

SMILES: O=C(NCC(c1cccnc1)N1CCN(c2ccccc2)CC1)c1cccs1 (stereo not drawn)
- IC50 (Staphylococcus aureus): 1.05 µM (active)

Source: ChEMBL document CHEMBL1201862, “PubChem BioAssay data set” (2004)
